Reference: patent publication US9278942B2, “Non-steroidal compounds as androgen receptor modulators” (FLX Discoveries Oy, priority 2011, dated 2016)
Where two headings read alike, the source gives them in different places. Blank lines part the entries; values can stand above or below the compound they belong to.

How the values were obtained:
human AR [1] = biological target: T1, human AR (Homo sapiens, UniProt P10275); test: Competitive AR binding assay against [3H]-R1881 in transiently transfected COS-1 cells; settings: compound 13.4 μM, [3H]-R1881 1.34 nM, complete inhibition equals 100%; for inhibition at 13.4 µM: read-out: Inhibition of [3H]-R1881 binding at 1.34 nM ± S.D.
T1 construct: expressed in transfected cells; host or cells: COS-1
T1 sequence (P10275 1-920): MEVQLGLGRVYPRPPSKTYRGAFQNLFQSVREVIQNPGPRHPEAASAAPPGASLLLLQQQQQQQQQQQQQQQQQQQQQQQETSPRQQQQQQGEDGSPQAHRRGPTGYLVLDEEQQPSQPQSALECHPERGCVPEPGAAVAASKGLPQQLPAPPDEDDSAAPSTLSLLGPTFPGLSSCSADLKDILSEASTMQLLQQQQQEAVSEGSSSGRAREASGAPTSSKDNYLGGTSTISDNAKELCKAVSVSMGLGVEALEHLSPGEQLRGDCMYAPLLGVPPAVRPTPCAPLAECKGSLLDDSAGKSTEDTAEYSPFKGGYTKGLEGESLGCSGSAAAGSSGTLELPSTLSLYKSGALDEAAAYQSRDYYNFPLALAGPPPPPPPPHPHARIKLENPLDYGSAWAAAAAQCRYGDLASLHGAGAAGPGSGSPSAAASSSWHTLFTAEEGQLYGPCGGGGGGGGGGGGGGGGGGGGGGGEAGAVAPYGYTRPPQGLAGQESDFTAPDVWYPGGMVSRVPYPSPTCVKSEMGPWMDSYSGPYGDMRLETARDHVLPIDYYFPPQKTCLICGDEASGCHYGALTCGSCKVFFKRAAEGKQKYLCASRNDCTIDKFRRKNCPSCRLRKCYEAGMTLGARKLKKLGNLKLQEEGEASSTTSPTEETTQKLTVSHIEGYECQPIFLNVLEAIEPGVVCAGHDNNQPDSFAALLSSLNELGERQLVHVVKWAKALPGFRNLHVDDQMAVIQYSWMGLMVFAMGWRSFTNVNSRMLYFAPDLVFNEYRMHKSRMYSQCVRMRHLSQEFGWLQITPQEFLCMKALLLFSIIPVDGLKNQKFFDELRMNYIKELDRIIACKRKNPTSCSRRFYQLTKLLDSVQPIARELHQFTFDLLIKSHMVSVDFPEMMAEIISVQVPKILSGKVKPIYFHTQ
Procedure: Competitive AR Binding Assay.
AR binding was measured by a competitive assay against [^3H]-R1881 (PerkinElmer) in transiently transfected COS-1 cells. One day before transfection, COS-1 cells were seeded into 2 ml of DMEM (Dulbecco's modified Eagle medium, Gipco) with 10% dextran-charcoal-treated fetal bovine serum and 0.25% (vol/vol) Penicillin-Streptomysin (Euroclone) at a density of 140×10^3 cells/well. After medium change to DMEM 2.5% FBS, the cells were transfected for 24 hours with 10 ng/well of human AR expression vector pSG5 hAR by using the TransIT method (Micrus Bio TransIT LT1, Transfection Reagent). After 36 hours, the cells where treated with tested compounds using 10000 fold molarities compared to labelled R1881 (1.34 nM). After 2 hours of incubation at 37° C., the medium was removed. The cells were removed from the wells to 150 μl of 1× phosphate buffered saline (PBS), transferred to Eppendorf tubes and centrifuged at 4° C. using 4000×g for 5 min, and then washed twice with 150 μl of PBS. The cell pellets were dissolved to 50 μl of 0.5M NaOH and incubated for 15 min at 56° C., after which the samples (three replicates for each sample compound) were transferred to liquid twinkle tubes with 3 ml of OptiPhase HiSafe 3 twinkle solution (PerkinElmer) and radioactivity of AR-bound [^3H]-R1881 determined. The results were measured with LKB WALLAC 1214 racbeta equipment. The ability of test compounds to bind AR is reported as reduction in bound radioactivity obtained with 1.34 nM [^3H]-R1881.
The results (% inhibition) were calculated as: % inhibition=100−[100×(averagecompound/average[3H]-R1881)].

human AR [2] = biological target: T1, human AR; test: AR antagonism assay: inhibition of transcriptional activation of AR (Probasin-luc reporter, COS-1 cells); type: cell-based; settings: compound 10.0 μM, relative luciferase response: 100% for testosterone (no antiandrogenic effect), 0% for complete antagonism; for remaining activity at 10 µM: COS-1, 18 h, read-out: AR antagonism against 100 nM testosterone ± S.D.
Procedure: Determination of the Antiandrogen Activity.
Testosterone was bought from Sigma Chemical Co. (St. Louis, Mo.) and hydroxyflutamide from Chemos GmbH. One day before transfection, COS-1 cells (from ATCC) were seeded into 1 ml of DMEM (Dulbecco's modified Eagle medium, Gibco) with 10% dextran-charcoal-treated fetal bovine serum and 0.25% (vol/vol) Penicillin-Streptomycin (Euroclone) at a density of 70×10^3 cells/well. After medium change to DMEM 2.5% FBS, the cells were transfected for 24 hours with 10 ng/well of human AR expression vector pSG5-hAR, 100 ng/well of reporter plasmid Probasin-luc, and 10 ng/well of control plasmid pCMV-β-gal by using the TransIT method (Micrus Bio TransIT LT1, Transfection Reagent). After the transfection, the cells received treatment of test compounds giving final concentration of 10 μM for each compound. In the antagonist test the wells were also treated with 100 nM final concentration of testosterone. After 18 hours, the cells were washed, lysed and assayed for luciferase and normalization for β-galactosidase activities and protein concentrations. The cells were washed with 100 μl of cold phosphate buffered saline (PBS) and lysed with 35 μl 1× Reporter lysis Buffer (Promega) and frozen (−70° C.) for 30 minutes. Cell lysates were placed in 1.5-ml propylene tubes and centrifuged at 13200×g for 5 minutes at room temperature. For β-galactosidase assay 10 μl of supernatant from each cell extract was transferred to a 96-well plate (96 well Elisa Microplates, PS, Microcon) and incubated for 10 minutes at 37° C. with 65 μl of reaction mixture consisting 0.76 μl 100×Mg-buffer, 12.5 μl ONPG (4 mg/ml), and 54.3 μl of sodium-phosphate buffer (pH 7). The reaction was stopped with treatment of 125 μl Na2CO3. For luciferase assay 10 μl of the supernatant was transferred to a 96-well plate (Greiner Microlon lumitrac 200) and treated with 30 μl of luciferase assay substrate solution (Promega Luciferase Assay System E1501). For the study of protein concentrations 5 μl of the supernatant was transferred to a 96-well plate (Elisa Microplates, PS, Microcon) and mixed with 200 μl of Bio-rad protein assay reagent. The luciferase activities were measured with Thermo Luminoscan Ascent scanner and the protein concentrations and β-galactosidase activities with Thermo Labsystem Multiscan Ex scanner. Also blank and control samples were measured. During the maintenance, transfection, and treatment with tested compounds the cells were incubated in humidified atmosphere with 5% carbon dioxide at 37° C.

Inhibition of [3H]-R1881 binding at 1.34 nM ± S.D. (human AR [1]; Table 2): 66.3 ± 9.8%
remaining activity at 10 µM (human AR [2]): 57.7 ± 9.9%
SMILES: Fc1ccc(C2=NOC3CCCCCCC23)cc1C(F)(F)F (stereo not drawn) [Example 43a, 3-(4-Fluoro-3-trifluoromethyl-phenyl)-3a,4,5,6,7,8,9,9a-octahydro-cycloocta[d]isoxazole]

Inhibition of [3H]-R1881 binding at 1.34 nM ± S.D. (human AR [1]; Table 2): 92.2 ± 0.7%
AR antagonism against 100 nM testosterone ± S.D. (human AR [2]): 15.6 ± 0.8%
SMILES: Fc1ccc(C2=NOC3CCCCCC23)c(C(F)(F)F)c1 (stereo not drawn) [Example 40b, 3-(4-Fluoro-2-trifluoromethyl-phenyl)-4,5,6,7,8,8a-hexahydro-3aH-cyclohepta[d]isoxazole]

inhibition at 13.4 µM (human AR [1]; Table 2): 90.5 ± 3.1%
inhibition at 13.4 µM (human AR [1]; Table 3): 91.4 ± 3.8%
remaining activity at 10 µM (human AR [2]): 17.4 ± 1.5%
SMILES: O=[N+]([O-])c1ccc(C2=NOC3CCCCCC23)c(C(F)(F)F)c1 (stereo not drawn) [Example 42a, 3-(4-Nitro-2-trifluoromethyl-phenyl)-4,5,6,7,8,8a-hexahydro-3aH-cyclohepta[d]isoxazole]

inhibition at 13.4 µM (human AR [1]; Table 3): 87.2 ± 2.9%
AR antagonism against 100 nM testosterone ± S.D. (human AR [2]): 9.4 ± 0.3%
SMILES: N#Cc1ccc(C2=NOC3CCCCCCC23)c(C(F)(F)F)c1 (single isomer, unassigned) [Example 93a, 4-(3a,4,5,6,7,8,9,9a-Octahydro-cycloocta[d]isoxazol-3-yl)-3-trifluoromethyl-benzonitrile]

Inhibition of [3H]-R1881 binding at 1.34 nM ± S.D. (human AR [1]; Table 2): 83.6 ± 0.9%
AR antagonism against 100 nM testosterone ± S.D. (human AR [2]): 20.3 ± 1.7%
SMILES: N#Cc1ccc(C2=NOC3CCCCC23)c(C(F)(F)F)c1 (stereo not drawn) [Example 89b, 4-(3a,4,5,6,7,7a-Hexahydro-benzo[d]isoxazol-3-yl)-3-trifluoromethyl benzonitrile]

inhibition at 13.4 µM (human AR [1]; Table 3): 90.3 ± 2.7%
remaining activity at 10 µM (human AR [2]): 19.8 ± 0.5%
SMILES: Fc1ccc(C2=NOC3CCCCCCC23)c(C(F)(F)F)c1 (stereo not drawn) [Example 44a, 3-(4-Fluoro-2-trifluoromethyl-phenyl)-3a,4,5,6,7,8,9,9a-octahydro-cycloocta[d]isoxazole]

inhibition at 13.4 µM (human AR [1]; Table 2): 76 ± 0.3%
AR antagonism against 100 nM testosterone ± S.D. (human AR [2]): 56.6 ± 1.4%
SMILES: Fc1ccc(C2=NOC3CCCCCCC23)cc1C(F)(F)F (stereo not drawn) [Example 43b, 3-(4-Fluoro-3-trifluoromethyl-phenyl)-3a,4,5,6,7,8,9,9a-octahydro-cycloocta[d]isoxazole]

The remaining lines, values behind:

SMILES: N#Cc1cccc(C2=NOC3CCCCCC23)c1C(F)(F)F (stereo not drawn) [Example 95b, 3-(4,5,6,7,8,8a-Hexahydro-3aH-cyclohepta[d]isoxazol-3-yl)-2-trifluoromethyl-benzonitrile]
Inhibition of [3H]-R1881 binding at 1.34 nM ± S.D. (human AR [1]; Table 3): 98.1 ± 0.3%
AR antagonism against 100 nM testosterone ± S.D. (human AR [2]): 19.2 ± 2.9%

SMILES: Oc1ccc(C2=NOC3CCCCC23)cc1 (stereo not drawn) [Example 26a, 4-(3a,4,5,6,7,7a-Hexahydro-benzo[d]isoxazol-3-yl)-phenol]
remaining activity at 10 µM (human AR [2]): 25.7 ± 5.5%

SMILES: O=[N+]([O-])c1ccc(C2=NOC3CCCCC23)cc1 (stereo not drawn) [Example 34ab, 3-(4-Nitro-phenyl)-3a,4,5,6,7,7a-hexahydro-benzo[d]-isoxazole]
remaining activity at 10 µM (human AR [2]): 48 ± 6.7%

SMILES: N#Cc1ccc(C2=NOC3CCCC23)c(C(F)(F)F)c1 (stereo not drawn) [Example 86ab, 4-(4,5,6,6a-Tetrahydro-3aH-cyclopenta[d]isoxazol-3-yl)-3-trifluoromethyl-benzonitrile]
inhibition at 13.4 µM (human AR [1]; Table 3): 91.7 ± 1.7%
remaining activity at 10 µM (human AR [2]): 29.3 ± 3.7%

SMILES: N#Cc1cccc(C2=NOC3CCCCC23)c1C(F)(F)F (single isomer, unassigned) [Example 94a, 3-(3a,4,5,6,7,7a-Hexahydro-benzo[d]isoxazol-3-yl)-2-trifluoromethyl-benzonitrile]
inhibition at 13.4 µM (human AR [1]; Table 3): 97.4 ± 0.4%
AR antagonism against 100 nM testosterone ± S.D. (human AR [2]): 17.8 ± 3.9%

SMILES: COc1ccccc1C1=NOC2CCCCC12 (stereo not drawn) [Example 23ab, 3-(2-Methoxy-phenyl)-3a,4,5,6,7,7a-hexahydro-benzo[d]isoxazole]
remaining activity at 10 µM (human AR [2]): 40.9 ± 2.4%

SMILES: COc1cccc(C2=NOC(Cc3ccccc3)(c3ccccc3)C2)c1 (single isomer, unassigned) [Example 13a, 5-Benzyl-5-phenyl-3-(3-methoxyphenyl)-4,5-dihydro-isoxazole]
Inhibition of [3H]-R1881 binding at 1.34 nM ± S.D. (human AR [1]; Table 1): 31.1 ± 5.6%

SMILES: Oc1ccc(C2=NOC3CCCCC23)cc1 (stereo not drawn) [Example 26b, 4-(3a,4,5,6,7,7a-Hexahydro-benzo[d]isoxazol-3-yl)-phenol]
AR antagonism against 100 nM testosterone ± S.D. (human AR [2]): 41.0 ± 1.6%

SMILES: Clc1ccccc1C1=NOC2CCCCC12 (single isomer, unassigned) [Example 30b, 3-(2-Chloro-phenyl)-3a,4,5,6,7,7a-hexahydro-benzo[d]-isoxazole]
Inhibition of [3H]-R1881 binding at 1.34 nM ± S.D. (human AR [1]; Table 1): 66.3 ± 6.5%

SMILES: Fc1ccccc1C1=NOC2CCCCC12 (single isomer, unassigned) [Example 27b, 3-(2-Fluoro-phenyl)-3a,4,5,6,7,7a-hexahydro-benzo[d]-isoxazole]
Inhibition of [3H]-R1881 binding at 1.34 nM ± S.D. (human AR [1]; Table 1): 0%

SMILES: CC1(Cc2ccccc2)CC(c2ccccc2F)=NO1 (stereo not drawn) [Example 4ab, 5-Benzyl-3-(2-fluorophenyl)-5-methyl-4,5-dihydro-isoxazole]
inhibition at 13.4 µM (human AR [1]; Table 1): 69.9 ± 3.3%

SMILES: COc1ccc(CC2=NOC(C)(Cc3ccccc3)N2CC(C)C)cc1 (single isomer, unassigned) [Example 65a, 5-Benzyl-4-isobutyl-3-(4-methoxy-benzyl)-5-methyl-4,5-dihydro-[1,2,4]oxadiazole]
Inhibition of [3H]-R1881 binding at 1.34 nM ± S.D. (human AR [1]; Table 1): 0%
